# Tests used:
# [1] = molecular target: Cyclin-dependent kinase 1 (Homo sapiens, UniProt P06493); test: Inhibition of CDK1
# [2] = tested on: LoVo; test: Antiproliferative activity against human LoVo cells assessed as inhibition of BrdU incorporation after 48 hrs; format: functional, cell-based
# [3] = physchem; details: buffer, pH 7.4
# Description: Equilibrium solubility at pH 7.4 after 24 hrs
# [4] = Volume of distribution at steady state in rat at 2.5 umol/kg, iv; format: ADME, organism-based; details: in vivo, read-out: Vdss
# [5] = Protein binding in rat plasma assessed as fraction unbound; format: ADME, cell-free; details: read-out: PPB
# [6] = molecular target: Cyclin-dependent kinase 2 (Homo sapiens, UniProt P24941); test: Inhibition of CDK2
# [7] = Lipophilicity, log D of the compound; format: physicochemical; details: octanol/water
# [8] = Clearance in rat at 2.5 umol/kg, iv; format: ADME, organism-based; details: in vivo
# [9] = AUC in rat at 2.5 umol/kg, iv; format: ADME, organism-based; details: plasma
# [10] = molecular target: Voltage-gated inwardly rectifying potassium channel KCNH2 (Homo sapiens, UniProt Q12809); test: Inhibition of human ERG
# [11] = molecular target: Cyclin-dependent kinase 9 (Homo sapiens) (UniProt P50750); test: Inhibition of CDK9
# [12] = Dissociation constant, pKa of the compound; format: physicochemical
# [13] = Volume of distribution at steady state in rat at 1 umol/kg, iv; format: ADME, organism-based; details: in vivo, read-out: Vdss
# [14] = Clearance in rat at 1 umol/kg, iv; format: ADME, organism-based; details: in vivo
# [15] = AUC in rat at 1 umol/kg, iv; format: ADME, organism-based; details: plasma
# [16] = Protein binding in nude mouse plasma assessed as fraction unbound; format: ADME, cell-free; details: read-out: PPB
# [17] = molecular target: Cytochrome P450 2C19 (Homo sapiens, UniProt P33261); test: Inhibition of CYP2C19; format: ADME
# [18] = Volume of distribution at steady state in Han/Wistar rat at 2.5 umol/kg, iv; format: ADME, organism-based; details: in vivo, read-out: Vdss
# [19] = tested on: SW-620; test: Antitumor activity against human SW620 cells xenografted nude mouse assessed as inhibition of tumor volume at 15 mg/kg, ip administered thrice a week for 3 weeks; format: functional; details: SW-620, ip, 504 h, route intraperitoneal
# [20] = Half life in Beagle dog at 0.2 umol/kg, iv; format: ADME, organism-based, Canis lupus familiaris; details: in vivo
# [21] = Volume of distribution at steady state in Beagle dog at 0.2 umol/kg, iv; format: ADME, organism-based, Canis lupus familiaris; details: in vivo, read-out: Vdss
# [22] = Half life in Han/Wistar rat at 2.5 umol/kg, iv; format: ADME, organism-based; details: in vivo
# [23] = Volume of distribution at steady state in nude mouse at 5 umol/kg, iv; format: ADME, organism-based; details: in vivo, read-out: Vdss
# [24] = Stability in rat plasma; format: ADME, cell-free; details: read-out: Stability
# [25] = tested on: Rattus norvegicus; test: AUC in Han/Wistar rat at 2.5 umol/kg, iv; format: ADME, organism-based, Plasma; details: in vivo
# [26] = Protein binding in Han/Wistar rat plasma assessed as fraction unbound; format: ADME, cell-free; details: read-out: PPB
# [27] = Half life in nude mouse at 5 umol/kg, iv; format: ADME, organism-based; details: in vivo
# [28] = Clearance in Han/Wistar rat at 2.5 umol/kg, iv; format: ADME, organism-based; details: in vivo
# [29] = Clearance in Beagle dog at 0.2 umol/kg, iv; format: ADME, organism-based, Canis lupus familiaris; details: in vivo
# [30] = tested on: Canis familiaris; test: AUC in Beagle dog at 0.2 umol/kg, iv; format: ADME, organism-based, Canis lupus familiaris, Plasma; details: in vivo
# [31] = molecular target: Cytochrome P450 3A4 (Homo sapiens, UniProt P08684); test: Inhibition of CYP3A4; format: ADME
# [32] = Photostability assessed as half life; format: physicochemical
# [33] = Clearance in nude mouse at 5 umol/kg, iv; format: ADME, organism-based; details: in vivo
# [34] = tested on: Mus musculus; test: AUC in nude mouse at 5 umol/kg, iv; format: ADME, organism-based, Plasma; details: in vivo
# [35] = Stability in human plasma; format: ADME, cell-free; details: read-out: Stability
# [36] = species on record: Canis familiaris; test: Clearance in Beagle dog assessed as liver blood flow; format: ADME, organism-based, Canis lupus familiaris; details: in vivo
# [37] = Stability in dog plasma; format: ADME, cell-free, Canis lupus familiaris; details: read-out: Stability
# [38] = Aqueous solubility in saline at pH 5; format: physicochemical; details: read-out: Activity
# [39] = Hydrolytic stability assessed as half life at pH 4 to 10; format: physicochemical; details: buffer
# [40] = molecular target: T1, Cytochrome P450 1A2 (Homo sapiens, UniProt P05177); test: Inhibition of CYP1A2; format: ADME
# T1 sequence (P05177 whole entry): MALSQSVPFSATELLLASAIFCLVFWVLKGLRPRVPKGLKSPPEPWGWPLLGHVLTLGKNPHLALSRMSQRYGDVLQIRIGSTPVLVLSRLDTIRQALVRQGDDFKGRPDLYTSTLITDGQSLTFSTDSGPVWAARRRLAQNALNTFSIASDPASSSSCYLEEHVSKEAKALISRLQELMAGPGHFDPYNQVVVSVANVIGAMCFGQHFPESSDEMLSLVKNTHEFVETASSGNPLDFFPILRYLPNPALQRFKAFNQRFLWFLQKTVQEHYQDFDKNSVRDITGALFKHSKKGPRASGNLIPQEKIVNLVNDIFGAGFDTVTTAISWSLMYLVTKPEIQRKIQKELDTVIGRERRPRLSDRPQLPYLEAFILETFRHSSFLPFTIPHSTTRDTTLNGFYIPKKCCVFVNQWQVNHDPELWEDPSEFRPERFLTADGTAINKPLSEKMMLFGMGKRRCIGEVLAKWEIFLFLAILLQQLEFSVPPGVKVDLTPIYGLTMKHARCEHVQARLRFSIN
# [41] = molecular target: Cytochrome P450 2C9 (Homo sapiens, UniProt P11712); test: Inhibition of CYP2C9; format: ADME
# [42] = tested on: Plasma; test: Protein binding in Beagle dog plasma assessed as fraction unbound; format: ADME, cell-free, Canis lupus familiaris
# [43] = molecular target: Cytochrome P450 2D6 (Homo sapiens, UniProt P10635); test: Inhibition of CYP2D6; format: ADME
# Chain of Cytochrome P450 2D6 (P10635 whole entry): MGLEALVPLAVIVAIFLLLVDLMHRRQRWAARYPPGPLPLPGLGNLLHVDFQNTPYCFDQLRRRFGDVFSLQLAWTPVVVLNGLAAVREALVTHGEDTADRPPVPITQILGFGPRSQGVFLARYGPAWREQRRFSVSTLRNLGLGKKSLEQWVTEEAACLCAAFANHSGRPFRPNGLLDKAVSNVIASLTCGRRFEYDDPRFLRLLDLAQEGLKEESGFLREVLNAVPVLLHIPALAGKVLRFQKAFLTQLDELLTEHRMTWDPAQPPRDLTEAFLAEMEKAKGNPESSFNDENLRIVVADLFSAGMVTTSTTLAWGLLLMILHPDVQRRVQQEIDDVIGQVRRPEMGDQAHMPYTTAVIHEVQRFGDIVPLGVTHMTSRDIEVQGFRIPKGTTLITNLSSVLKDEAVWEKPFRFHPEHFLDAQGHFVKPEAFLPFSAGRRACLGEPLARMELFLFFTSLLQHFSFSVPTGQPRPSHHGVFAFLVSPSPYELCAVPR
# Chain of Cyclin-dependent kinase 1 (P06493 whole entry): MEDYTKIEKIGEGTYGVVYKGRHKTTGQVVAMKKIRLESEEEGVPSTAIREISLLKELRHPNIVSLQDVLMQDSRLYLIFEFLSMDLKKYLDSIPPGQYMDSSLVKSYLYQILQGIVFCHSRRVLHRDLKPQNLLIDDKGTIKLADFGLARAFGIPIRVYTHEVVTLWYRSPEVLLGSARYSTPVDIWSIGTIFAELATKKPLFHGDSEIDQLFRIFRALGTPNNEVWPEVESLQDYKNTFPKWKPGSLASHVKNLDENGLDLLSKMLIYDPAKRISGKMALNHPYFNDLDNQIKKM
# Chain of Cyclin-dependent kinase 9 (Homo sapiens) (P50750 whole entry): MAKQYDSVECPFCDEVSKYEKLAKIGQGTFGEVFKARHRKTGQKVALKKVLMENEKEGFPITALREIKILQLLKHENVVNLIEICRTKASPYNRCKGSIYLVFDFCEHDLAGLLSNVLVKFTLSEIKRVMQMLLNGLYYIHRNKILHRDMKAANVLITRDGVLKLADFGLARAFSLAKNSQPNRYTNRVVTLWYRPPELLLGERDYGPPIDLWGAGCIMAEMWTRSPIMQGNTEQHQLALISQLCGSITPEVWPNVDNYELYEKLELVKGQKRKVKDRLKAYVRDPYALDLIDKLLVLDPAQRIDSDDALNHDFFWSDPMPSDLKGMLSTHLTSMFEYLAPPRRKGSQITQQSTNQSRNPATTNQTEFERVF
# Chain of Voltage-gated inwardly rectifying potassium channel KCNH2 (Q12809 whole entry): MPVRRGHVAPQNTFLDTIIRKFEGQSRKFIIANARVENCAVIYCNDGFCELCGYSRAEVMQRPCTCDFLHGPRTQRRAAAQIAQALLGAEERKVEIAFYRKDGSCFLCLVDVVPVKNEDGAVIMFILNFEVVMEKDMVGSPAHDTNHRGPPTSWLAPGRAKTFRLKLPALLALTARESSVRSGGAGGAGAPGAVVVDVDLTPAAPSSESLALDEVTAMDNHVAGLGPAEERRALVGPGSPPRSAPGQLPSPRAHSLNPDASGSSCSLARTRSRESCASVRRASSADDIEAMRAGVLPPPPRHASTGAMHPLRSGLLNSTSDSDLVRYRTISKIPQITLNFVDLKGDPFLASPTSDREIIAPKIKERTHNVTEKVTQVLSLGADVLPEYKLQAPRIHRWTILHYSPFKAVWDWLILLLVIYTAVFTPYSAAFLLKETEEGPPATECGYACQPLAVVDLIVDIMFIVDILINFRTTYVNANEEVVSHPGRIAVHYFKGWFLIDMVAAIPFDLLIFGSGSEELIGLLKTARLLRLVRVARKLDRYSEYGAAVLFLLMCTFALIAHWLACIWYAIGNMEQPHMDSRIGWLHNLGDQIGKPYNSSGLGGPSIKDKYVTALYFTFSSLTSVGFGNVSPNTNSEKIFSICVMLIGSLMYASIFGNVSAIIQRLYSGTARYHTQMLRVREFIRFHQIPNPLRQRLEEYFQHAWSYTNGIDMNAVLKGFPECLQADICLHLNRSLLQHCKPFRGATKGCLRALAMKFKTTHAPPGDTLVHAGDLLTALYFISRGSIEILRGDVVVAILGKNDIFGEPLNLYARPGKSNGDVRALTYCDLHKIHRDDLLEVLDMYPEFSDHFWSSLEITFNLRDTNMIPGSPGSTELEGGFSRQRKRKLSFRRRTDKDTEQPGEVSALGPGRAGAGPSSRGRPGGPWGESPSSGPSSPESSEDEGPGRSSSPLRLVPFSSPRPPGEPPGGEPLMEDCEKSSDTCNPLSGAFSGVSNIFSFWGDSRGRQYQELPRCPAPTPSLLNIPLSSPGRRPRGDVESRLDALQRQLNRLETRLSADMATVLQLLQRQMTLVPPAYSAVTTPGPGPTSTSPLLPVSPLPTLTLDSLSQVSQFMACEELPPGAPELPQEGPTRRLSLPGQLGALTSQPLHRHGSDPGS
# Chain of Cytochrome P450 2C19 (P33261 whole entry): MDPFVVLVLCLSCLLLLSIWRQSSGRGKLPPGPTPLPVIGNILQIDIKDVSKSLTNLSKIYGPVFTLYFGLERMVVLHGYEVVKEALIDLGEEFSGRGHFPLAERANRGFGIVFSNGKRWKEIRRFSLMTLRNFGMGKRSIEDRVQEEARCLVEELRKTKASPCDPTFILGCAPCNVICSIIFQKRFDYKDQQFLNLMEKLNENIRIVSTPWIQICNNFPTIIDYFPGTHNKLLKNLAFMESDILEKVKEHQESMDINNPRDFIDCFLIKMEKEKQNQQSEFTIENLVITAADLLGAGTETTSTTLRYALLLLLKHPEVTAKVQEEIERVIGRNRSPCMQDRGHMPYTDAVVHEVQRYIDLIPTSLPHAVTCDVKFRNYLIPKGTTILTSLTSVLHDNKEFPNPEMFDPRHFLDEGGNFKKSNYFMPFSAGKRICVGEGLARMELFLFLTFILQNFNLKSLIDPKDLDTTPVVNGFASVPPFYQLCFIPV
# Chain of Cytochrome P450 3A4 (P08684 whole entry): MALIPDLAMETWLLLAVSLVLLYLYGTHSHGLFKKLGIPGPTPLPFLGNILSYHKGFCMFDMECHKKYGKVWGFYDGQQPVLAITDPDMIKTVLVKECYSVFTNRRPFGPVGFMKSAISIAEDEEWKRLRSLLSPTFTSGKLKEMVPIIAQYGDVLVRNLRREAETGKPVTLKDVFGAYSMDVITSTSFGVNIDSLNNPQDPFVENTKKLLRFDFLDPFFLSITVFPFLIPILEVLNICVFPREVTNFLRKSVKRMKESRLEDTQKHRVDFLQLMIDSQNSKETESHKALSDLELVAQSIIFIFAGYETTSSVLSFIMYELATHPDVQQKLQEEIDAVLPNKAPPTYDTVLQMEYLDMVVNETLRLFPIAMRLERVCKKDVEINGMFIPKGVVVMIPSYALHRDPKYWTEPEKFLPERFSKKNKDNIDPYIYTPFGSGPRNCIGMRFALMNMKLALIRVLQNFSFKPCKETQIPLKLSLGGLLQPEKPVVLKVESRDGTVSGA
# Chain of Cytochrome P450 2C9 (P11712 whole entry): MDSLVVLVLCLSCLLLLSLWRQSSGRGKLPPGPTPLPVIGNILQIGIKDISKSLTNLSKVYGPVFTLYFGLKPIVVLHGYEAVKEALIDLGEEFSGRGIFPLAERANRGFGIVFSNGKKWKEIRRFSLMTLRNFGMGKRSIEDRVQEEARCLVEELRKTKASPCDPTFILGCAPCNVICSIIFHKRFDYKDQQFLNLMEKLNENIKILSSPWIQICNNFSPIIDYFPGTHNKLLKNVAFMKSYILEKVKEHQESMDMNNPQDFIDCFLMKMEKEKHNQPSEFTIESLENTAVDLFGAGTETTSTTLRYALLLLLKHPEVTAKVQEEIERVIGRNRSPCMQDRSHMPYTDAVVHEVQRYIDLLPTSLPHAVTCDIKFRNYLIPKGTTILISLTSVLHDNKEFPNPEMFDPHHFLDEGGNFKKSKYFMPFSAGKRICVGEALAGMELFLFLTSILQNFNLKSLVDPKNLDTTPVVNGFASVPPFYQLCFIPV
smiles,measurement,setting,value
Cc1ncc(-c2nc(Nc3ccc(C(=O)N4CC[C@@H](N(C)C)C4)cc3)ncc2F)n1C(C)C,IC50,[1],11 nM
same,IC50,[2],70 nM
same,solubility thermodynamic at 24 h,[3],> 2400 µM
Cc1ncc(-c2nc(Nc3ccc(C(=O)NCCN(C)C)c(F)c3)ncc2F)n1C(C)C,IC50,[1],< 1 nM
same,IC50,[2],2 nM
same,Vd,[4],9.8 L/kg
same,fraction unbound,[5],0.07
same,IC50,[6],2 nM
same,logD,[7],2.3
same,clearance,[8],24 mL/min/kg
same,AUC,[9],0.8 µM·h
same,solubility thermodynamic at 24 h,[3],> 2700 µM
same,Activity,[10],> 65 µM
same,Activity,[11],0.003 µM
same,pKa,[12],8.6
Cc1ncc(-c2ccnc(Nc3ccc(C(=O)NCCN(C)C)c(F)c3)n2)n1C(C)C,IC50,[1],29 nM
same,IC50,[2],3 nM
same,solubility thermodynamic at 24 h,[3],> 1900 µM
Cc1ncc(-c2nc(Nc3ccc(C(=O)N4CCCN(C)CC4)cc3)ncc2F)n1C(C)C,IC50,[1],5 nM
same,IC50,[2],40 nM
same,fraction unbound,[5],0.07
same,IC50,[6],2 nM
same,logD,[7],2
same,Vd,[13],1.5 L/kg
same,clearance,[14],28 mL/min/kg
same,AUC,[15],0.3 µM·h
same,solubility thermodynamic at 24 h,[3],> 2600 µM
same,Activity,[10],> 32 µM
same,Activity,[11],0.012 µM
same,pKa,[12],8.1
Cc1ncc(-c2nc(Nc3ccc(C(=O)N4CCN(C)CC4)cc3)ncc2F)n1C(C)C,IC50,[1],130 nM
same,IC50,[2],170 nM
same,IC50,[6],18 nM
same,solubility thermodynamic at 24 h,[3],60 µM
same,pKa,[12],6.9
CCCN(C)[C@H]1CCN(C(=O)c2ccc(Nc3nccc(-c4cnc(C)n4C(C)C)n3)cc2)C1,IC50,[1],120 nM
same,IC50,[2],62 nM
same,IC50,[6],4 nM
Cc1ncc(-c2ccnc(Nc3ccc(C(=O)NC4CCN(C)CC4)cc3)n2)n1C(C)C,IC50,[1],180 nM
same,IC50,[2],2100 nM
same,IC50,[6],37 nM
Cc1ncc(-c2nc(Nc3ccc(C(=O)NC4CCN(C)CC4)cc3)ncc2F)n1C(C)C,IC50,[1],50 nM
same,IC50,[2],320 nM
same,IC50,[6],36 nM
same,solubility thermodynamic at 24 h,[3],> 2500 µM
Cc1ncc(-c2nc(Nc3ccc(C(=O)NC4CCN(C)CC4)c(F)c3)ncc2F)n1C(C)C,IC50,[1],12 nM
same,IC50,[2],80 nM
same,Vd,[4],5.2 L/kg
same,fraction unbound,[5],0.06
same,IC50,[6],1 nM
same,logD,[7],2.4
same,clearance,[8],16 mL/min/kg
same,AUC,[9],1.3 µM·h
same,solubility thermodynamic at 24 h,[3],270 µM
same,Activity,[11],0.013 µM
same,pKa,[12],8.8
Cc1ncc(-c2ccnc(Nc3ccc(C(=O)N4CC[C@H](NC5CC5)C4)cc3)n2)n1C(C)C,IC50,[1],100 nM
same,IC50,[2],250 nM
same,IC50,[6],< 1 nM
Cc1ncc(-c2ccnc(Nc3ccc(C(=O)NC4CCN(C)CC4)c(F)c3)n2)n1C(C)C,IC50,[1],150 nM
same,IC50,[2],200 nM
same,IC50,[6],11 nM
same,solubility thermodynamic at 24 h,[3],> 2200 µM
Cc1ncc(-c2ccnc(Nc3ccc(C(=O)N4CCN(C)CC4)cc3)n2)n1C(C)C,IC50,[1],71 nM
same,IC50,[2],520 nM
same,IC50,[6],9 nM
same,pKa,[12],7
Cc1ncc(-c2nc(Nc3ccc(C(=O)N4CC[C@H](N(C)C)C4)cc3)ncc2F)n1C(C)C,IC50,[1],11 nM
same,IC50,[2],37 nM
same,Vd,[4],3.4 L/kg
same,fraction unbound,[5],0.04
same,logD,[7],2.1
same,clearance,[8],23 mL/min/kg
same,AUC,[9],0.8 µM·h
same,solubility thermodynamic at 24 h,[3],> 2100 µM
same,Activity,[10],33 µM
same,Activity,[11],0.005 µM
same,pKa,[12],7.4
CN[C@H]1CCN(C(=O)c2ccc(Nc3ncc(F)c(-c4cnc(C)n4C(C)C)n3)cc2)C1,IC50,[1],2 nM
same,fraction unbound,[16],0.16
same,Activity,[17],> 10 µM
same,IC50,[2],39 nM
same,Vd,[18],6.4 L/kg
same,inhibition in vivo at 15 mg/kg,[19],55%
same,half-life,[20],32.3 h
same,Vd,[21],40.4 L/kg
same,half-life,[22],3.6 h
same,Vd,[23],5.1 L/kg
same,half-life,[24],> 18 h
same,AUC,[25],1.38 µM·h
same,fraction unbound,[26],0.04
same,IC50,[6],2 nM
same,half-life,[27],3.4 h
same,clearance,[28],30 mL/min/kg
same,logD,[7],1.45
same,clearance,[29],19 mL/min/kg
same,AUC,[30],0.18 µM·h
same,Activity,[31],> 10 µM
same,half-life,[32],> 24 h
same,clearance,[33],35 mL/min/kg
same,AUC,[34],2.4 µM·h
same,half-life,[35],> 18 h
same,%hepatic blood flow,[36],58%
same,half-life,[37],> 18 h
same,solubility,[38],> 50 µM
same,Activity,[10],95 µM
same,half-life,[39],> 100 days
same,Activity,[40],> 10 µM
same,Activity,[41],> 10 µM
same,PPB,[42],> 67%
same,Activity,[43],> 10 µM
CN[C@H]1CCN(C(=O)c2ccc(Nc3nccc(-c4cnc(C)n4C(C)C)n3)cc2)C1,IC50,[1],9 nM
same,IC50,[2],180 nM
same,IC50,[6],2 nM

# From ChEMBL document CHEMBL1152195, “The discovery of AZD5597, a potent imidazole pyrimidine amide CDK inhibitor suitable for intravenous dosing” (Bioorg Med Chem Lett, 2008)
